# Patent US9422254B2, “Methoxyacrylate-based fungicide and methods for preparing and using the same” (priority 2008, dated 2016)
# Where “and” joins values, the source holds several entries; their conditions need not be identical. Equal values may be shown once.
# Key:
# NADH oxidase (NOX) = NADH oxidase (NOX) (Sus scrofa, UniProt P24964); assay: Enzyme activity test, NOX; type: biochemical; conditions: azoxystrobin as control agent
# Description: Take NADH oxidase (NOX), succinate-cytochrome C oxidase (SCO), and Complex III as target enzymes, the inhibitory activity of the compound of Formula (I) was tested.
# ^a NOX is generally used to detect an inhibitor of Complex I and Complex III; SCO is generally used to detect an inhibitor of Complex II and Complex III. Thus, an inhibitor of Complex III should have inhibitory activity on the two enzymes.
# Botrytis cinerea = assay: microbe, parasite or virus in culture; type: cell-based; conditions: read-out: Inhibition rate (%)
# Alternaria solani = assay: microbe, parasite or virus in culture; type: cell-based; conditions: read-out: Inhibition rate (%)
# cucumber downy mildew = assay: Field efficacy trial of emulsifier concentrate 1, cucumber downy mildew; type: in vivo
# Description: To a beaker (1000 mL), 50 g (100% basis) of the compound of Formula (I), 150 g of DMF, and 50 g of acetone were added and stirred for dissolution. To the solution, 25 g of pesticide emulsifier No. 500 and 50 g of Tween 80, 20 g of epoxidized soybean oil, and […] of toluene were added. Thus, the emulsifier concentrate 1 having 5 wt. % of the compound of Formula (I) was obtained and further packed.
# On the basis of indoor activity evaluation, field efficacy trials of the compound of Formula (I) on cucumber downy mildew, cucumber powdery mildew, and melon powdery mildew were conducted.
# rat = assay: Acute skin test; type: in vivo; conditions: rat
# Description: (§1) The toxicological indexes of the compound were tested following the standard GB15670-1995 “Toxicological test methods of pesticides for registration” by Tongji Medical College, Huazhong University of Science and Technology.
# Acute skin test = type: in vivo, rat; conditions: in vivo, topical
# Description: as §1
# quail = assay: Acute oral toxicity test on quail; type: in vivo
# Description: After acute toxicity and Ames test had been finished, environmental toxicity test was conducted following “Guideline for Environmental Safety Evaluation of Chemical Pesticides” of Agriculture Ministry of China by Shenyang Chemical Research Institute/Supervision and Test Center for Pesticide Safety Evaluation and Quality Control.
# rabbit's eye = assay: Eye stimulation test; type: in vivo
# Description: as §1
# [1] = test system: Mice Polychromatic Erythrocytes; assay: Micronucleus Test of Mice Polychromatic Erythrocytes; type: in vivo
# Description: as §1
# Helminthosporum maydis = assay: organism not typed; type: cell-based
# Fusarium moniliforme = assay: microbe, parasite or virus in culture; type: cell-based; conditions: Fusarium verticillioides, read-out: Inhibition rate (%)
# [2] = test system: Rice sheath blight (strain WK-1); assay: In vivo micro-screening assay
# Description: In Vivo Micro-Screening Assay
# (§2) To further study the fungicidal spectrum of the compound of Formula (I), indoor in vivo micro-screening assay were carried out on cucumber gray mold, cucumber scab, cucumber sclerotinia rot, cucumber brown spot, pepper phytophthora blight, and rice sheath blight.
# (§3) Cucumber scab strain: HX; cucumber brown spot strain: SDHGHB060509; cucumber sclerotinia rot strain: HGJH; pepper phytophthora blight strain: NSGP; and rice sheath blight strain: WK-1.
# (§4) Medicament to be tested and medicament of control groups were prepared as needed in a sunny morning. Cucumber gray mold, cucumber scab, cucumber brown spot, cucumber sclerotinia rot, and rice sheath blight were medicated by spray, and after air dry, pathogens of cucumber scab and of cucumber brown spot were inoculated through spraying spore suspension respectively, pathogens of cucumber gray mold, of cucumber sclerotinia rot, and of rice sheath blight were inoculated through lawn foliage. Pepper phytophthora blight was medicated and inoculated by root-irrigation. Subsequently, all seedlings were cultured in wet environment.
# (§5) After the disease of control groups were serious, spot area, disease index, and the diseased seedling rate were investigated to calculate the efficacy. Cucumber scab, cucumber brown spot, and pepper phytophthora blight were investigated by grading method. The spot extension area of cucumber gray mold and of rice sheath blight was investigated. The diseased seedling rate of cucumber sclerotinia rot was investigated. Disease index=Σ(amount of infected diseased leaves in a grade×relative value of the grade)×100/(total amount of leaves×9); Diseased seedling rate (%)=(total amount of seedlings−amount of diseased seedlings)/total amount of seedlings×100% Prevention and treatment effect (%)=(disease of control group−disease of experiment group)/disease of control group×100%
# Gibberella zea = assay: organism not typed; type: cell-based; conditions: read-out: Inhibition rate (%)
# [3] = test system: Cucumber sclerotinia rot (strain HGJH); assay: In vivo micro-screening assay
# Description: In Vivo Micro-Screening Assay
# as §2, §3, §4, §5
# [4] = test system: Cucumber scab (strain HX); assay: In vivo micro-screening assay
# Description: In Vivo Micro-Screening Assay
# as §2, §3, §4, §5
# [5] = 25 mg/L, 5th day after third administration, Average
# [6] = 25 mg/L, 5th day after third administration, No. 1-3
# [7] = 25 mg/L, 9th day after third administration, Average
# [8] = 25 mg/L, 9th day after third administration, No. 1-3
# [9] = 25 mg/L, 12th day after second administration, Average
# [10] = 25 mg/L, 12th day after second administration, No. 1-3
# [11] = 50 mg/L, 5th day after third administration, Average
# [12] = 50 mg/L, 5th day after third administration, No. 1-3
# [13] = 50 mg/L, 9th day after third administration, Average
# [14] = 50 mg/L, 9th day after third administration, No. 1-3
# [15] = 50 mg/L, 12th day after second administration, Average
# [16] = 50 mg/L, 12th day after second administration, No. 1-3
# [17] = 100 mg/L, 5th day after third administration, Average
# [18] = 100 mg/L, 5th day after third administration, No. 1-3
# [19] = 100 mg/L, 9th day after third administration, Average
# [20] = 100 mg/L, 9th day after third administration, No. 1-3
# [21] = 100 mg/L, 12th day after second administration, Average
# NADH oxidase (NOX), sequence (P24964 whole entry): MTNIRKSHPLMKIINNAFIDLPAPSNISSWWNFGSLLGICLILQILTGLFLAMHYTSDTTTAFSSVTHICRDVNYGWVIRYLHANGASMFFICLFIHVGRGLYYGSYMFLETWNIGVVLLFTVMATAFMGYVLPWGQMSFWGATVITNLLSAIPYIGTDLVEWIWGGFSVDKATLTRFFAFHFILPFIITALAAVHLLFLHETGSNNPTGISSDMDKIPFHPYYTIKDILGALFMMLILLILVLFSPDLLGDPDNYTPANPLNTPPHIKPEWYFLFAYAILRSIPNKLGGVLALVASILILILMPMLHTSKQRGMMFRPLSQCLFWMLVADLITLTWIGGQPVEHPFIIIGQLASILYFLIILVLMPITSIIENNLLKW
compound,measurement,setting,value
"CO/C=C(/C(=O)OC)c1ccccc1CSc1nc2cc(OC)ccc2s1 [Compound of Formula (I), (E)-methyl 3-methoxy-2-(2-((5-methoxy-benzothiazol-2-ylthio)methyl)phenyl)acrylate]",inhibitory activity on NOX compared with azoxystrobin,NADH oxidase (NOX),much higher inhibitory activity
same,inhibition at 0.3 µg/mL,Botrytis cinerea; 0.3 mg/L,42.3%
same,inhibition at 3 µg/mL,Botrytis cinerea; 3 mg/L,42.7%
same,inhibition at 30 µg/mL,Botrytis cinerea; 30 mg/L,54.9%
same,inhibition at 0.3 µg/mL,Alternaria solani; 0.3 mg/L,32.4%
same,inhibition at 3 µg/mL,Alternaria solani; 3 mg/L,39.2%
same,inhibition at 30 µg/mL,Alternaria solani; 30 mg/L,43.9%
same,Disease index,cucumber downy mildew; [5],4.75
same,Efficacy (%),cucumber downy mildew; [5],58.99%
same,Disease index,cucumber downy mildew; [6],4.86 and 4.51
same,Efficacy (%),cucumber downy mildew; [6],57.99% and 60.99%
same,Disease index,cucumber downy mildew; [7],11.50
same,Efficacy (%),cucumber downy mildew; [7],68.89%
same,Disease index,cucumber downy mildew; [8],12.04 and 10.42
same,Efficacy (%),cucumber downy mildew; [8],67.43% and 71.82%
same,Disease index,cucumber downy mildew; [9],1.85
same,Efficacy (%),cucumber downy mildew; [9],69.24%
same,Disease index,cucumber downy mildew; [10],1.74 and 2.08
same,Efficacy (%),cucumber downy mildew; [10],71.16% and 65.39%
same,Disease index,cucumber downy mildew; [11],3.94
same,Efficacy (%),cucumber downy mildew; [11],65.99%
same,Disease index,cucumber downy mildew; [12],3.47 and 4.51 and 3.82
same,Efficacy (%),cucumber downy mildew; [12],69.99% and 60.99% and 66.99%
same,Disease index,cucumber downy mildew; [13],8.72
same,Efficacy (%),cucumber downy mildew; [13],76.41%
same,Disease index,cucumber downy mildew; [14],10.65 and 7.18 and 8.33
same,Efficacy (%),cucumber downy mildew; [14],71.19% and 80.58% and 77.45%
same,Disease index,cucumber downy mildew; [15],1.39
same,Efficacy (%),cucumber downy mildew; [15],76.93%
same,Disease index,cucumber downy mildew; [16],1.04 and 1.74 and 1.39
same,Efficacy (%),cucumber downy mildew; [16],82.70% and 71.16% and 76.93%
same,Disease index,cucumber downy mildew; [17],2.55
same,Efficacy (%),cucumber downy mildew; [17],77.99%
same,Disease index,cucumber downy mildew; [18],2.08 and 2.43 and 3.13
same,Efficacy (%),cucumber downy mildew; [18],81.99% and 78.99% and 72.99%
same,Disease index,cucumber downy mildew; [19],7.10
same,Efficacy (%),cucumber downy mildew; [19],80.79%
same,Disease index,cucumber downy mildew; [20],8.10 and 7.18 and 6.02
same,Efficacy (%),cucumber downy mildew; [20],78.08% and 80.58% and 83.72%
same,Disease index,cucumber downy mildew; [21],1.02
same,Efficacy (%),cucumber downy mildew; [21],83.04%
same,Efficacy (%),"cucumber downy mildew; 100 mg/L, 12th day after second administration, No. 1-3",83.71% and 76.93% and 88.46%
same,Toxicity (acute skin test),rat,Low toxicity
same,LD50,Acute skin test; Female rat,> 2000 mg/kg
same,LD50,Acute skin test; Male rat,> 2000 mg/kg
same,LC50,quail,LC50 > 1100 mg/kg.bw
same,Eye stimulation,rabbit's eye,Mild stimulation on rabbit's eye
same,Micronucleus Test of Mice Polychromatic Erythrocytes,[1],Negative
same,in vitro effect,Helminthosporum maydis,particularly effective
same,inhibition at 0.3 µg/mL,"Helminthosporum maydis; 0.3 mg/L, read-out: Inhibition rate (%)",86.1%
same,inhibition at 3 µg/mL,"Helminthosporum maydis; 3 mg/L, read-out: Inhibition rate (%)",100%
same,inhibition at 30 µg/mL,"Helminthosporum maydis; 30 mg/L, read-out: Inhibition rate (%)",100%
same,inhibition at 0.3 µg/mL,Fusarium moniliforme; 0.3 mg/L,9.6%
same,inhibition at 3 µg/mL,Fusarium moniliforme; 3 mg/L,30.8%
same,inhibition at 30 µg/mL,Fusarium moniliforme; 30 mg/L,43.6%
same,prevention and treatment effect,[2],good prevention and treatment effect
same,Disease index,[2]; 100 mg/L,59.96
same,Efficacy (%),[2]; 100 mg/L,61.67%
same,Disease index,[2]; 500 mg/L,46.87
same,Efficacy (%),[2]; 500 mg/L,70.04%
same,inhibition at 0.3 µg/mL,Gibberella zea,34.9%
same,inhibition at 3 µg/mL,Gibberella zea,45.9%
same,inhibition at 30 µg/mL,Gibberella zea,54.6%
same,Efficacy (%),[3]; 100 mg/L,16.84%
same,Spot area (mm^2),[3]; 100 mg/L,70.08 mm^2
same,Efficacy (%),[3]; 500 mg/L,58.88%
same,Spot area (mm^2),[3]; 500 mg/L,34.65 mm^2
same,prevention and treatment effect,[4],good prevention and treatment effect
same,Disease index,[4]; 100 mg/L,0
same,Efficacy (%),[4]; 100 mg/L,100.00%
same,Disease index,[4]; 500 mg/L,0
same,Efficacy (%),[4]; 500 mg/L,100.00%
